# In ChEMBL document CHEMBL5120941 (ACS Med Chem Lett, 2022):
# Key:
# [1] = Aqueous solubility of the compound in deionized water at 25 degC; assay type: physicochemical
# [2] = tested on: Staphylococcus aureus; test: Antibacterial activity against Staphylococcus aureus ATCC 19636 infected ICR mouse septicemia model assessed as increase in animal's survival rate administered iv at 1 hr post-infection and measured after 48 hrs; assay type: functional
# [3] = AUC (0 to 24 hrs) in Sprague-Dawley rat at 10 mg/kg, iv by HLPC-MS/MS analysis; assay type: ADME, organism-based; design: time < 24 hr, dose 10 mg/kg, route iv; details: in vivo
# [4] = tested on: Staphylococcus aureus; test: Antibacterial activity against Staphylococcus aureus ATCC 19636 infected Sprague-Dawley rat peritonitis model assessed as increase in animal's survival rate administered iv at 1 hr post-infection and measured after 48 hrs; assay type: functional
smiles,measurement,setting,value
O=C1C=CN(c2c(F)cc(N3C[C@H](CNc4ccon4)OC3=O)c(F)c2F)CC1 [CONTEZOLID],solubility,[1],200 µg/mL
same,ED50,[2],4.7 mg/kg
same,AUC(0-t) at 24 h,[3],25400 ng·h/mL
same,ED50,[4],10.3 mg/kg
